Measurements: patent US10947188B2, “Small molecule ferroptosis inducers” (THE TRUSTEES OF COLUMBIA UNIVERSITY IN THE CITY OF NEW YORK, priority 2016, dated 2021)
≈ marks a conversion by molar mass, not a printed value.

Columns and labels:
[1] = tested on: HT-1080 cells; experiment: Lethality of commercially available CIL41/70 structural analogs; type: cell-based; conditions: Homo sapiens, tested once in technical triplicates
Outline: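 HT-1080 cells (1,000/well) dosed at seeding with twofold 12-point dilutions of lethal compounds. Viability read by Alamar Blue fluorescence (530/590 nm) after 6 h, normalized to media and vehicle wells. Analogs tested once, in technical triplicate.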

[2] = tested on: HT-1080 cells; experiment: Cell viability assay (Alamar Blue), lethal compounds with or without modulators; type: cell-based; conditions: for ferroptosis-inducing activity of FIN56 analogs: HT-1080, 48 hrs; for effect on FIN56 lethality: HT-1080 cells, modulator cotreatment or pretreatment
Experimental: 1,000 cells per 36 μl were seeded in each well in 384-well plates. Lethal compounds were dissolved, and a twofold, 12-point dilution series was prepared in DMSO. Compound solutions were further diluted with media at 1:25, and 4 μl per well of the diluted solutions was added to cell cultures immediately after cells were seeded. […] When other cell-death-modulating compounds (100 nM sodium selenite, 1 μM cerivastatin, 100 μg/mL mevalonic acid) were used in cotreatments, they were supplemented to cell culture for 24 h before lethal compounds were added to cell culture, after which cells were further incubated for 24 h at 37° C. under 5% CO2. On the day of the viability measurement, we added 10 μl per well of 50% Alamar Blue diluted in media (Life Technologies) and further incubated the cells at 37° C. for 6 h. Fluorescence intensity (excitation/emission: 530/590) was measured with a Victor 3 plate reader (PerkinElmer), and the normalized viability was calculated as VL=(IL−I0)/(IV−I0), where VL, I0, IV, and IL are the normalized viability and the raw fluorescence intensities from the wells containing media, cells treated with a vehicle (negative control), and cells with the lethal compound (L), respectively. When the effect of a chemical modulator (M) on L was calculated, we instead used the equation VL|M=(IM,L−I0)/(IM,V−I0), where VL|M, IM,L and IM,V are the normalized viability, and fluorescence intensity from cells treated with […], respectively. The viability was typically measured in biological triplicate unless otherwise specified. A representative dose-response curve, the mean and standard error of normalized viability from one replicate were plotted. […]

Row | SMILES | EC50 [1] [µg/mL] | other results
1 | CC(C)(C)CC(=O)O/N=C(\N)C1(c2ccc(Cl)cc2Cl)CC1 [MB9] | > 20 | 
2 | CC(=O)O/N=C(\N)COc1ccc(-c2nnco2)cc1 [MB10] | > 20 | 
3 | CC(C)(C)C(=O)O/N=C(\N)COc1ccc(Cl)cc1Cl [MB11] | > 20 | 
4 | CCC(=O)O/N=C(\N)COc1ccc(Cl)cc1Cl [MB12] | > 20 | 
5 | CC(C)(C)C(=O)O/N=C(\N)Cc1cccc2ccccc12 [MB13] | > 20 | 
6 | CC(C)(C)C(=O)O/N=C(\N)COc1ccc(C(C)(C)C)cc1 [MB14] | 2.6 (≈ 8.49 µM) | 
7 | CC(C)(C)C(=O)O/N=C(\N)CS(=O)(=O)c1ccc(Cl)cc1 [MB15] | > 20 | 
8 | N/C(COc1cccc(Cl)c1)=N\OC(=O)CCn1cc(C(F)(F)F)ccc1=O [MB16] | > 20 | 
9 | Cc1ccc(OC/C(N)=N/OC(=O)CCn2cc(C(F)(F)F)ccc2=O)cc1 [MB17] | > 20 | 
10 | O=S(=O)(NC1CCOCC1)c1ccc2c(c1)C(=NO)c1cc(S(=O)(=O)NC3CCOCC3)ccc1-2 [SRS8-18, 9-(hydroxyimino)-N2,N7-bis(tetrahydro-2H-pyran-4-yl)-9H-fluorene-2,7-disulfonamide] |  | ferroptosis-inducing activity of FIN56 analogs [2]: complete loss of activity
11 | O=S(=O)(NC1CCOCC1)c1ccc2c(c1)C(=NOCCOCCOCCO)c1cc(S(=O)(=O)NC3CCOCC3)ccc1-2 [SRS11-66, 9-(2-(2-(2-hydroxyethoxy)ethoxy)ethoxyimino)-N2,N7-bis(tetrahydro-2H-pyran-4-yl)-9H-fluorene-2,7-disulfonamide] |  | ferroptosis-inducing activity of FIN56 analogs [2]: complete loss of activity
12 | N/C(Cc1ccc(Cl)cc1)=N\OC(=O)C(c1ccccc1)c1ccccc1 [VM1] | 2 (≈ 5.28 µM) | 
13 | N/C(Cc1ccc(Cl)cc1Cl)=N\OC(=O)Cc1ccc(Cl)cc1 [VM2] | > 20 | 
14 | N/C(Cc1ccc(Cl)cc1Cl)=N\OC(=O)/C=C/c1ccccc1Cl [VM3] | 8.51 (≈ 22.2 µM) | 
15 | N/C(Cc1cccc2ccccc12)=N\OC(=O)CCc1ccccc1 [VM4] | > 20 | 
16 | N/C(Cc1ccc([N+](=O)[O-])cc1)=N\OC(=O)CCc1ccccc1 [VM5] | > 20 | 
17 | F/C(COc1ccc2c(c1)[nH]c1ccccc12)=C1/CN2CCC1CC2 [YM-53601] |  | effect on FIN56 lethality [2]: suppressed FIN56 lethality
18 | Cc1nn(C/C(N)=N/OC(=O)C2CCCCC2)c(C)c1Br [ZE1] | > 20 | 
19 | Cc1nn(C/C(N)=N/OC(=O)CC23CC4CC(CC(C4)C2)C3)c(C)c1Br [ZE2] | 15.6 (≈ 36.9 µM) | 

Row | SMILES | EC50 [1] [µg/mL] | other results
20 | COc1ccc(CC(=O)O/N=C(\N)Cn2nc(C(F)(F)F)cc2C)cc1 [ZE3] | > 20 | 
21 | Cc1nn(C/C(N)=N/OC(=O)C(C)C)c(C)c1[N+](=O)[O-] [ZE4] | > 20 | 
22 | COc1ccc(CC(=O)O/N=C(/N)Cn2nc(C)c([N+](=O)[O-])c2C)cc1 [ZE5] | > 20 | 
23 | CCC(=O)O/N=C(/N)Cn1nc(C(F)(F)F)cc1C [ZE6] | > 20 | 
24 | COc1ccc(CC(=O)O/N=C(/N)Cn2nc(C)c(Br)c2C)cc1 [ZE7] | > 20 | 
25 | Cc1cc(C(F)(F)F)nn1C/C(N)=N/OC(=O)CC12CC3CC(CC(C3)C1)C2 [ZE8] | > 20 | 
26 | Cc1nn(C/C(N)=N/OC(=O)Cn2nc(C(F)(F)F)cc2C2CC2)c(C)c1[N+](=O)[O-] [ZE9] | > 20 | 
27 | Cc1cc(C(F)(F)F)nn1C/C(N)=N/OC(=O)CC1CC2CCC1C2 (centres unmarked) [ZE10] | > 20 | 
28 | N/C(Cn1c(C(F)(F)F)nc2ccccc21)=N\OC(=O)CC1CC2CCC1C2 (centres unmarked) [ZE11] | > 20 | 
29 | CC1=C(Br)C(C)N(C/C(N)=N/OC(=O)CC2CC3CCC2C3)N1 (centres unmarked) [ZE12] | > 20 | 
30 | Cc1cccc(OCC(=O)O/N=C(/N)Cn2nc(C)c([N+](=O)[O-])c2C)c1 [ZE13] | > 20 | 
31 | Cc1nn(C/C(N)=N\OC(=O)COc2cc(Cl)ccc2Cl)c(C)c1[N+](=O)[O-] [ZE14] | > 20 | 
32 | Cc1cc(C(F)(F)F)nn1C/C(N)=N/OC(=O)C1CCCCC1 [ZE15] | > 20 | 
33 | N/C(Cc1ccc(Cl)cc1)=N\OC(=O)Cc1ccccc1 [ZE16] | > 20 | 
34 | CC(=O)O/N=C(N)/C(N)=N/OC(C)=O [ZE17] | > 20 | 
35 | C[C@H]1O[C@@H](O[C@H]2[C@@H](O)C[C@H](O[C@H]3[C@@H](O)C[C@H](O[C@H]4CC[C@@]5(C)[C@H](CC[C@@H]6[C@@H]5C[C@@H](O)[C@]5(C)[C@@H](C7=CC(=O)OC7)CC[C@]65O)C4)O[C@@H]3C)O[C@@H]2C)C[C@H](O)[C@@H]1O [digoxin, Digoxin] |  | effect on FIN56 lethality [2]: enhanced FIN56 lethality
36 | C[C@H](CCC(=O)O)C[C@H](C)C[C@H](C)C(=O)/C=C(\O)[C@H](C)C[C@H](C)C/C=C/[C@@H](C)[C@@H](O)[C@@H](C)[C@@H](O)C[C@@H]1CC[C@@](C)([C@H]2CC[C@@](C)([C@@H](C)O)O2)O1 [ionomycin] |  | effect on FIN56 lethality [2]: enhanced FIN56 lethality
37 | O=[Se]([O-])[O-].[Na+].[Na+] [selenite, sodium selenite] |  | effect on FIN56 lethality [2]: suppressed FIN56 lethality
38 | C=C(CC[C@]12O[C@H](C(=O)O)[C@@](O)(C(=O)O)[C@](C(=O)O)(O1)[C@H](OC(=O)/C=C/[C@@H](C)C[C@@H](C)CC)[C@H]2O)[C@@H](OC(C)=O)[C@H](C)Cc1ccccc1 [zaragozic acid A] |  | effect on FIN56 lethality [2]: suppressed FIN56 lethality
